Measurements taken from US20080009418A1, “Selective Inhibitors” (Alchemia LTD., priority 2004, published 2008).

Tests used:
Human δ-opioid (DOP) = target: T1, Human δ-opioid (DOP) (Homo sapiens, UniProt P41143); assay: Radioligand binding, human δ-opioid (DOP) membranes, FlashPlate, [3H]-Bremazocine; settings: compound at 10 μM, [3H]-Bremazocine
T1 construct: purchased Perkin Elmer Biosignal
Procedure, shortened: (§1)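 Cloned human receptor membranes were coated onto FlashPlate wells and incubated with radioligand and compound (added from a 0.5 mM DMSO daughter plate) for 1 hour at room temperature in the dark. Scintillation counting gave percent inhibition, with DMSO defining total and reference ligand defining non-specific binding.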

Human neurokinin (NK1) = target: T2, Human neurokinin (NK1) (Homo sapiens, UniProt P25103); assay: Radioligand binding, human neurokinin NK1 membranes, filtration, [125I]-Substance P; settings: compound at 10 μM, [125I]-Substance P
T2 construct: purchased Perkin Elmer Biosignal
T2 sequence (P25103 whole entry): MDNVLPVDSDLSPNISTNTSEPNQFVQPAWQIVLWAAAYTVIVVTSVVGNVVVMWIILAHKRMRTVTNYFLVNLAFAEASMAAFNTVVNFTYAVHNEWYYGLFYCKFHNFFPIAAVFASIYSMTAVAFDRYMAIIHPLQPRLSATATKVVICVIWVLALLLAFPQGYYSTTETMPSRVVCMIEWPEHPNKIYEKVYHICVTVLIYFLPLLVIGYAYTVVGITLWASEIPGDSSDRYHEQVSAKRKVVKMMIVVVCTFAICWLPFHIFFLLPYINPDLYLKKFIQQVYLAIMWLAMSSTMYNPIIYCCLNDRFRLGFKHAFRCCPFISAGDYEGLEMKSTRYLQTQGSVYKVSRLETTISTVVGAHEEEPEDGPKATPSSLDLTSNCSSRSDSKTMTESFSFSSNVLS
Procedure, shortened: (§2)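 Percent inhibition of radioligand binding measured on recombinant human membranes: NK1 with [125I]-Substance P, KOP with [3H]-Diprenorphine. Incubation 1 h at room temperature, then harvest onto 0.3% PEI-soaked filters, cold Tris-HCl pH 7.4 washes and scintillation counting; non-specific binding from reference ligand wells.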

Human melanocortin (MC5) = target: T3, Human melanocortin (MC5) (Homo sapiens, UniProt P33032); assay: Radioligand binding, human melanocortin MC5 membranes, FlashPlate, [125I]-NDP-αMSH; settings: compound at 10 μM, [125I]-NDP-αMSH
T3 construct: purchased Perkin Elmer Biosignal
T3 sequence (P33032 whole entry): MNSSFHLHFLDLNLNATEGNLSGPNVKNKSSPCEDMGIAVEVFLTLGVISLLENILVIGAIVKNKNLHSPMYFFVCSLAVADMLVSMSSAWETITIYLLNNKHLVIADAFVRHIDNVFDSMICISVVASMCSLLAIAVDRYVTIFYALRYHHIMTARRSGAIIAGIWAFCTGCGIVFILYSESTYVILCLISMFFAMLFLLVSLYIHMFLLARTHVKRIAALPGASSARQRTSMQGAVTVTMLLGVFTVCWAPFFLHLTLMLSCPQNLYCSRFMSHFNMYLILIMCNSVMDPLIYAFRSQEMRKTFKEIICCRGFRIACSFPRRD
Procedure, shortened: as §1

Mouse urotensin (mUR2) = target: T4, Mouse urotensin (mUR2) (Mus musculus, UniProt Q8VIH9); assay: Radioligand binding, mouse urotensin mUR2 membranes, FlashPlate, [125I]-Urotensin II; settings: compound at 10 μM, [125I]-Urotensin II
T4 construct: purchased Perkin Elmer Biosignal
T4 sequence (Q8VIH9 1-385): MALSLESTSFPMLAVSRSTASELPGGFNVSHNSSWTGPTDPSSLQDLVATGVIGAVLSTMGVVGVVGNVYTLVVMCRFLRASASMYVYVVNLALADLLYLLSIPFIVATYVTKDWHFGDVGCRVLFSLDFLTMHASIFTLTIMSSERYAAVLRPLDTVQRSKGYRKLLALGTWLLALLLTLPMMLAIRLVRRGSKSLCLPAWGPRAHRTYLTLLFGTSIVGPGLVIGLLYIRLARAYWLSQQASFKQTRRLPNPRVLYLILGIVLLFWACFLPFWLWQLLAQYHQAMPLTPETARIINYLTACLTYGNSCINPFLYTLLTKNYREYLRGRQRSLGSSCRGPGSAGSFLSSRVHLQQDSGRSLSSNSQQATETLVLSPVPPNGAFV
Procedure, shortened: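 Cloned mouse urotensin (mUR2) receptor membranes from Perkin Elmer Biosignal were immobilized in FlashPlate microplates using a proprietary coating. Each well got 19.5 μl buffer, then 0.5 μl of DMSO, reference ligand, or compound. Adding 5 μl of [125I]-Urotensin II, diluted to 5× final concentration in binding buffer, started binding. Plates were sealed with TopSeal-A and incubated 1 hour at room temperature in the dark. Wells were counted for 30 seconds each on a TopCount after a 60-second delay, and percentage inhibition was calculated.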

Human opioid (ORL1) = target: T5, Human opioid (ORL1) (Homo sapiens, UniProt P41146); assay: Radioligand binding, human opioid ORL1 membranes, FlashPlate, [125I]-Nociceptin; settings: compound at 10 μM, [125I]-Nociceptin
T5 construct: purchased Perkin Elmer Biosignal
T5 sequence (P41146 whole entry): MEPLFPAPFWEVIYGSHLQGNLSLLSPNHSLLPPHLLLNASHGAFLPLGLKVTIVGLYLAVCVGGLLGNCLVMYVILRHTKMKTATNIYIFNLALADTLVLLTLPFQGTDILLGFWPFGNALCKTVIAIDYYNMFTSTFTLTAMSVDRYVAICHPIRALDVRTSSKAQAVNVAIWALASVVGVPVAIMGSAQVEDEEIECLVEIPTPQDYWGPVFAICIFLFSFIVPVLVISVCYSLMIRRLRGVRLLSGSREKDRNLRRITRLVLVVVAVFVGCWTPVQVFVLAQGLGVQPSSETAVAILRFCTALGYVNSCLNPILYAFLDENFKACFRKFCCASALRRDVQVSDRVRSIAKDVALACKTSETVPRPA
Procedure, shortened: as §1

Human Melanocortin (MC4) = target: T6, Human Melanocortin (MC4) (Homo sapiens, UniProt P32245); assay: Radioligand binding, human melanocortin MC4 membranes, FlashPlate, [125I]-NDP-αMSH; settings: compound at 10 μM, [125I]-NDP-αMSH
T6 construct: purchased Perkin Elmer Biosignal
T6 sequence (P32245 whole entry): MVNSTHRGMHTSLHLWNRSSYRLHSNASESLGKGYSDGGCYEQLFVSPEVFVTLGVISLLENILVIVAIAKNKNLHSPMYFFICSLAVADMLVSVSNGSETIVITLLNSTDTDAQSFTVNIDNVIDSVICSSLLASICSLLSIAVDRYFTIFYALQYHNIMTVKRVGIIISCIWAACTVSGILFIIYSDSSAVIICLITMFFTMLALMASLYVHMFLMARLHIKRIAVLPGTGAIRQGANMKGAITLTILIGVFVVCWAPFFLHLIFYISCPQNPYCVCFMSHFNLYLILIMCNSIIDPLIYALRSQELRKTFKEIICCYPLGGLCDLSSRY
Procedure, shortened: as §1

[1] = target: T7, Human melanin-concentrating hormone (MCH1) (Homo sapiens, UniProt Q99705); assay: Radioligand binding, human melanin-concentrating hormone MCH1 membranes, FlashPlate, [125I]-S36057; settings: compound at 10 μM
T7 construct: purchased Perkin Elmer Biosignal
T7 sequence (Q99705 whole entry): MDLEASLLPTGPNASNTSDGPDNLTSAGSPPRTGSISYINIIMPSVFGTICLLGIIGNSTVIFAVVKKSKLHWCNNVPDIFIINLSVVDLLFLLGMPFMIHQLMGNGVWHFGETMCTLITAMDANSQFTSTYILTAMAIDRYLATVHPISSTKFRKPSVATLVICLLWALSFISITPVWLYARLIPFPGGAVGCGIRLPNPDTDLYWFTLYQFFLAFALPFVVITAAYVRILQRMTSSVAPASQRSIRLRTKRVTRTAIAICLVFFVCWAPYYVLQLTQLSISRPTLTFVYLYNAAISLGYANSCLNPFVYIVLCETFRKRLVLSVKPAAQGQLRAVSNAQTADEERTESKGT
Procedure, shortened: as §1

[2] = target: T8, Human neuropeptide Y (NPY-Y1) (Homo sapiens, UniProt P25929); assay: Radioligand binding, human neuropeptide Y NPY-Y1 membranes, FlashPlate, [125I]-PYY; settings: compound at 10 μM, [125I]-PYY
T8 construct: purchased Perkin Elmer Biosignal
T8 sequence (P25929 1-384): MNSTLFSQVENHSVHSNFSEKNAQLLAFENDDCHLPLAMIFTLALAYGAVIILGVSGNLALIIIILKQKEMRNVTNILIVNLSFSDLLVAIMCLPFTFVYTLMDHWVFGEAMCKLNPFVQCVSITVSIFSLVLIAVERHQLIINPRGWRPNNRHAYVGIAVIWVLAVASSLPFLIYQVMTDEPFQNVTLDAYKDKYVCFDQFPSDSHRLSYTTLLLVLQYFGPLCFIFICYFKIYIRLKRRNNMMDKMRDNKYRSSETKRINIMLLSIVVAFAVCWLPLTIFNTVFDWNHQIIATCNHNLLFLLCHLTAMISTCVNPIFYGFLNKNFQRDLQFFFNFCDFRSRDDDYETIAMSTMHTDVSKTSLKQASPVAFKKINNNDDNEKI
Procedure, shortened: as §1

Human μ-opioid (MOP) = target: T9, Human μ-opioid (MOP) (Homo sapiens, UniProt P35372); assay: Radioligand binding, human μ-opioid (MOP) membranes, FlashPlate, [3H]-Naloxone; settings: compound at 10 μM, [3H]-Naloxone
T9 construct: purchased Perkin Elmer Biosignal
T9 sequence (P35372 whole entry): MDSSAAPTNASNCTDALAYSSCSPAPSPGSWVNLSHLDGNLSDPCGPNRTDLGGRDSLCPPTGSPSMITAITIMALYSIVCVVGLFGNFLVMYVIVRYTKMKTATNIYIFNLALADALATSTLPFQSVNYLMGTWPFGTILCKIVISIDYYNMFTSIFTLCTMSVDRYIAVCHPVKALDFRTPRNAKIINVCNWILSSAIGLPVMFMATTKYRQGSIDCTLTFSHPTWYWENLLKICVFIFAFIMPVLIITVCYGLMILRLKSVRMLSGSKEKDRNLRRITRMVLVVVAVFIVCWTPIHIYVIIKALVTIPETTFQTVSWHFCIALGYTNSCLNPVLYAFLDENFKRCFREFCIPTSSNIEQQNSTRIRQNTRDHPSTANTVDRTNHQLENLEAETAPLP
Procedure, shortened: as §1

Human κ-Opioid (KOP) = target: T10, Human κ-Opioid (KOP) (Homo sapiens, UniProt P41145); assay: Radioligand binding, human κ-opioid (KOP) membranes, filtration, [3H]-Diprenorphine; settings: compound at 10 μM, [3H]-Diprenorphine
T10 construct: purchased Perkin Elmer Biosignal
T10 sequence (P41145 whole entry): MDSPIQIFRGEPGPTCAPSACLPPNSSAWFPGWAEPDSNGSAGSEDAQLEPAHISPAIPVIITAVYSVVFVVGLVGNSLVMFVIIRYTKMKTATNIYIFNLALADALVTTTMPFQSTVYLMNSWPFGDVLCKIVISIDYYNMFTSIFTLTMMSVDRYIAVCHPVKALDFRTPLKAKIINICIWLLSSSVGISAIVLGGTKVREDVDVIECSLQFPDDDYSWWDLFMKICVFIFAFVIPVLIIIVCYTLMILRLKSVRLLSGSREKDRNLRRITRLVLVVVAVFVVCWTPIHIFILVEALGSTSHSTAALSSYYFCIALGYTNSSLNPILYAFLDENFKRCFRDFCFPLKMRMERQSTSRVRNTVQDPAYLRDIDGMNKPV
Procedure, shortened: as §2

Human Melanocortin (MC3) = target: T11, Human Melanocortin (MC3) (Homo sapiens, UniProt P41968); assay: Radioligand binding, human melanocortin MC3 membranes, FlashPlate, [125I]-NDP-αMSH; settings: compound at 10 μM, [125I]-NDP-αMSH
T11 construct: purchased Perkin Elmer Biosignal
T11 sequence (P41968 whole entry): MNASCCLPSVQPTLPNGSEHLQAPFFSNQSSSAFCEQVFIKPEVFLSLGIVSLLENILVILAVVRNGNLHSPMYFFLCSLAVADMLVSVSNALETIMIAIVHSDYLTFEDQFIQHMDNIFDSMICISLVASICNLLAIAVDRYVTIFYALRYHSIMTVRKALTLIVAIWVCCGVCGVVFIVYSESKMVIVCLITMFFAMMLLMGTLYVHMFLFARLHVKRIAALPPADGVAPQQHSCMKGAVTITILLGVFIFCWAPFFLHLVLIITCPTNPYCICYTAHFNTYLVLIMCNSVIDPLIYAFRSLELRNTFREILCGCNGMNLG
Procedure, shortened: as §1

T1 sequence (P41143 whole entry): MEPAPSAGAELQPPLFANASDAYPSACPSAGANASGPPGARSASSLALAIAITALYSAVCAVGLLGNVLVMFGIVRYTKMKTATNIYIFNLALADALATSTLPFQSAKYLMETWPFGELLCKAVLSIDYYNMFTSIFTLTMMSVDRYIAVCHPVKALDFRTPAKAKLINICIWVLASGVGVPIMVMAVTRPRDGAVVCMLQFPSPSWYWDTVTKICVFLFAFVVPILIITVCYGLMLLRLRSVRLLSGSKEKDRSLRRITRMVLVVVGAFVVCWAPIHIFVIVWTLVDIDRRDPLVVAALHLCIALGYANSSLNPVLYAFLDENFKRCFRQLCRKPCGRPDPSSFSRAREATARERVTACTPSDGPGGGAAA

NCCC(=O)N[C@H]1C(OCc2ccc3ccccc3c2)O[C@H](COCc2ccccc2)[C@@H](O)[C@@H]1OCc1ccc(Cl)cc1 (some centres unmarked) [compound 439]
A1: inhibition of radioligand binding (Human δ-opioid (DOP); human DOP membranes): − (“−” indicates less than 50% inhibition at 10 μM) | A8: inhibition of radioligand binding (Human neurokinin (NK1); human NK1 membranes): + (“+” indicates greater than 50% inhibition at 10 μM) | A5: inhibition of radioligand binding (Human melanocortin (MC5); human MC5 membranes, 10 µM): + (“+” indicates greater than 50% inhibition at 10 μM) | A11: inhibition of radioligand binding (Mouse urotensin (mUR2); mouse mUR2 membranes): − (“−” indicates less than 50% inhibition at 10 μM) | A10: inhibition of radioligand binding (Human opioid (ORL1); human ORL1 membranes): − (“−” indicates less than 50% inhibition at 10 μM) | A4: inhibition of radioligand binding (Human Melanocortin (MC4); human MC4 membranes, 10 µM): + (“+” indicates greater than 50% inhibition at 10 μM) | A6: inhibition of radioligand binding ([1]; [125I]-S36057, human MCH1 membranes, 10 µM): − (“−” indicates less than 50% inhibition at 10 μM) | A9: inhibition of radioligand binding ([2]; human NPY-Y1 membranes): − (“−” indicates less than 50% inhibition at 10 μM) | A7: inhibition of radioligand binding (Human μ-opioid (MOP); human MOP membranes): − (“−” indicates less than 50% inhibition at 10 μM) | A2: inhibition of radioligand binding (Human κ-Opioid (KOP); human KOP membranes): − (“−” indicates less than 50% inhibition at 10 μM) | A3: inhibition of radioligand binding (Human Melanocortin (MC3); human MC3 membranes): − (“−” indicates less than 50% inhibition at 10 μM)

CSC1O[C@H](COCc2ccc(Cl)cc2)[C@@H](O)[C@@H](OCc2ccc(Cl)cc2)[C@H]1NC(=O)CCCNC(=N)N (some centres unmarked) [compound 274]
A1: inhibition of radioligand binding (Human δ-opioid (DOP); FlashPlate): − (“−” indicates less than 50% inhibition at 10 μM) | A8: inhibition of radioligand binding (Human neurokinin (NK1); filtration): + (“+” indicates greater than 50% inhibition at 10 μM) | A5: inhibition of radioligand binding (Human melanocortin (MC5); FlashPlate): − (“−” indicates less than 50% inhibition at 10 μM) | A11: inhibition of radioligand binding (Mouse urotensin (mUR2); FlashPlate): − (“−” indicates less than 50% inhibition at 10 μM) | A10: inhibition of radioligand binding (Human opioid (ORL1); FlashPlate): − (“−” indicates less than 50% inhibition at 10 μM) | A4: inhibition of radioligand binding (Human Melanocortin (MC4); FlashPlate): − (“−” indicates less than 50% inhibition at 10 μM) | A6: inhibition of radioligand binding ([1]; [125I]-S36057, FlashPlate): − (“−” indicates less than 50% inhibition at 10 μM) | A9: inhibition of radioligand binding ([2]; FlashPlate): − (“−” indicates less than 50% inhibition at 10 μM) | A7: inhibition of radioligand binding (Human μ-opioid (MOP); FlashPlate): − (“−” indicates less than 50% inhibition at 10 μM) | A2: inhibition of radioligand binding (Human κ-Opioid (KOP); filtration): − (“−” indicates less than 50% inhibition at 10 μM) | A3: inhibition of radioligand binding (Human Melanocortin (MC3); FlashPlate): − (“−” indicates less than 50% inhibition at 10 μM)

N=C(N)NCC(=O)N[C@H]1C(OCc2ccc(Cl)cc2)O[C@H](COCc2ccc(Cl)cc2)[C@@H](O)[C@@H]1OCc1ccc(Cl)cc1 (some centres unmarked) [compound 511]
A1: inhibition of radioligand binding, human δ-opioid (DOP) (Human δ-opioid (DOP)): − (“−” indicates less than 50% inhibition at 10 μM) | A8: inhibition of radioligand binding, human neurokinin (NK1) (Human neurokinin (NK1)): + (“+” indicates greater than 50% inhibition at 10 μM) | A5: inhibition of radioligand binding, human melanocortin (MC5) (Human melanocortin (MC5)): + (“+” indicates greater than 50% inhibition at 10 μM) | A11: inhibition of radioligand binding, mouse urotensin (mUR2) (Mouse urotensin (mUR2)): − (“−” indicates less than 50% inhibition at 10 μM) | A10: inhibition of radioligand binding, human opioid (ORL1) (Human opioid (ORL1)): + (“+” indicates greater than 50% inhibition at 10 μM) | A4: inhibition of radioligand binding, human melanocortin (MC4) (Human Melanocortin (MC4)): + (“+” indicates greater than 50% inhibition at 10 μM) | A6: inhibition of radioligand binding, human melanin-concentrating hormone (MCH1) ([1]; [125I]-S36057): + (“+” indicates greater than 50% inhibition at 10 μM) | A9: inhibition of radioligand binding, human neuropeptide Y (NPY-Y1) [2]: − (“−” indicates less than 50% inhibition at 10 μM) | A7: inhibition of radioligand binding, human μ-opioid (MOP) (Human μ-opioid (MOP)): + (“+” indicates greater than 50% inhibition at 10 μM) | A2: inhibition of radioligand binding, human κ-opioid (KOP) (Human κ-Opioid (KOP)): − (“−” indicates less than 50% inhibition at 10 μM) | A3: inhibition of radioligand binding, human melanocortin (MC3) (Human Melanocortin (MC3)): + (“+” indicates greater than 50% inhibition at 10 μM)

N=C(N)NCCCC(=O)NC1C(OCc2ccc(-c3ccccc3)cc2)OC(COCc2ccccc2)C(O)C1OCc1ccccc1 (centres unmarked) [compound 435]
A1: inhibition of radioligand binding (Human δ-opioid (DOP); human DOP membranes): − (“−” indicates less than 50% inhibition at 10 μM) | A8: inhibition of radioligand binding (Human neurokinin (NK1); human NK1 membranes): + (“+” indicates greater than 50% inhibition at 10 μM) | A5: inhibition of radioligand binding (Human melanocortin (MC5); human MC5 membranes): + (“+” indicates greater than 50% inhibition at 10 μM) | A11: inhibition of radioligand binding (Mouse urotensin (mUR2); mouse mUR2 membranes): − (“−” indicates less than 50% inhibition at 10 μM) | A10: inhibition of radioligand binding (Human opioid (ORL1); human ORL1 membranes): + (“+” indicates greater than 50% inhibition at 10 μM) | A4: inhibition of radioligand binding (Human Melanocortin (MC4); human MC4 membranes): + (“+” indicates greater than 50% inhibition at 10 μM) | A6: inhibition of radioligand binding ([1]; [125I]-S36057, human MCH1 membranes): + (“+” indicates greater than 50% inhibition at 10 μM) | A9: inhibition of radioligand binding ([2]; human NPY-Y1 membranes): − (“−” indicates less than 50% inhibition at 10 μM) | A7: inhibition of radioligand binding (Human μ-opioid (MOP); human MOP membranes): + (“+” indicates greater than 50% inhibition at 10 μM) | A2: inhibition of radioligand binding (Human κ-Opioid (KOP); human KOP membranes): + (“+” indicates greater than 50% inhibition at 10 μM) | A3: inhibition of radioligand binding (Human Melanocortin (MC3); human MC3 membranes): + (“+” indicates greater than 50% inhibition at 10 μM)
